These results are taken from paper PMC5460133 (Scientific Reports, 2017).

In experiment [1] the test system is T1, Sb-PDE.
T1 construct: native enzyme purified from Sphingobium sp; TCM1; signal peptide removed; mature 413 residues, N-terminus EFVTQSDQRPP (residues 29-39 of 441); homodimer, 116 kDa; zinc-containing; PHP superfamily
It is filed as biochemical, Sphingobium sp. TCM1.

In experiment [2] the test system is T1, Sb-PDE. It is filed as biochemical, Sphingobium sp. TCM1. This is another data set of the same source.

The Km is the substrate concentration at which the rate is half of its maximum. With `O=[N+]([O-])c1ccc(OP(=O)(O)O)cc1` [pNPP], in the experiment with Sb-PDE [1], the Km came to 1.5 ± 0.2 mM.

For `O=[N+]([O-])c1ccc(OP(=O)(O)Oc2ccc([N+](=O)[O-])cc2)cc1` [BpNPP], the Km in the experiment on Sb-PDE [1] is 6.1 ± 1.2 mM. Besides, the K i in the experiment with Sb-PDE [2] was determined as 12.5 ± 3.1 mM.
